Reference: paper PMC11174122 (Molecules, 2024)
Read-outs that look alike come from different tables or passages of the source.

Columns and labels:
[1] = system: Bel-7402; assay: MTT cytotoxic activity assay, Bel-7402; assay type: cell-based; details: Homo sapiens, 48 h
Method: (§1) MCF-7, Hela, and HUCEC were cultured in DMEM (Beijing Solarbio) containing 10% FBS, 100 U/mL penicillin, and […] at 37 °C and 5% CO2. Bel-7402, A549, PC-3M were cultured in RPMI-1640 (Beijing Solarbio) media supplemented with 10% FBS (Wuhan Punuosai Life Science and Technology Co., Ltd., Wuhan, China), 100 U/mL penicillin, and […] at 37 °C and 5% CO2. MTT (Beijing Solarbio) was prepared with PBS at a concentration of 5 mg/mL. All tested drugs were prepared in a solution with a concentration of 20 mM, with dimethyl sulfoxide as the solvent.
(§2) The cells were inoculated into 96-well plates at a density of 5 × 10^3 cells/well. When the cell fusion reached 70–80%, the drug was treated for 48 h. Subsequently, 20 μL MTT was added to each well and incubated at 37 °C with 5% CO2 for 4 h. After that, the medium was discarded and 150 μL DMSO was added to each well. The absorbance was measured at 490 nm with an enzymoleter.

[2] = system: MCF-7; assay: MTT cytotoxic activity assay, MCF-7; assay type: cell-based; details: Homo sapiens, MCF7, 48 h
Method: as §1, §2

[3] = system: PC-3M; assay: MTT cytotoxic activity assay, PC-3M; assay type: cell-based; details: Homo sapiens
Method: as §1, §2

[4] = system: A549; assay: MTT cytotoxic activity assay, A549; assay type: cell-based; details: Homo sapiens, 48 h
Method: as §1, §2

[5] = system: Hela; assay: MTT cytotoxic activity assay, Hela; assay type: cell-based, human; details: Homo sapiens, HeLa; MTT, 48 h
Method: as §1, §2

| SMILES | IC50 [1] [µM] | IC50 [2] [µM] | IC50 ([3]; read-out: IC50 PC-3M, 48 h) [µM] | IC50 [4] [µM] | IC50 [5] [µM] | IC50 ([3]; read-out: IC50 PC-3M (text), 48 h) [µM] |
| --- | --- | --- | --- | --- | --- | --- |
| CC(C)[C@H](NC(=O)OC(C)(C)C)C(=O)Oc1ccc(/C=C/C(=O)c2ccc(OC(=O)[C@@H](NC(=O)OC(C)(C)C)C(C)C)cc2O)cc1 [Compound 3, (E)-4-(3-(4-(((tert-butoxycarbonyl)valyl)oxy)-2-hydroxyphenyl)-3-oxoprop-1-en-1-yl)phenyl (tert-butoxycarbonyl)valinate] | > 200 | > 200 | > 200 | > 200 | > 200 | – |
| CC(C)C[C@H](NC(=O)OC(C)(C)C)C(=O)Oc1ccc(/C=C/C(=O)c2ccc(OC(=O)[C@H](CC(C)C)NC(=O)OC(C)(C)C)cc2O)cc1 [Compound 1, (E)-4-(3-(4-(((tert-butoxycarbonyl)leucyl)oxy)-2-hydroxyphenyl)-3-oxoprop-1-en-1-yl)phenyl (tert-butoxycarbonyl)leucinate] | > 200 | > 200 | > 200 | > 200 | > 200 | – |
| Cc1ccc(C[C@@H](NC(=O)OC(C)(C)C)C(=O)Oc2ccc(/C=C/C(=O)c3ccc(O)cc3O)cc2)cc1 [Compound 23, (E)-4-(3-(2,4-dihydroxyphenyl)-3-oxoprop-1-en-1-yl)phenyl(R)-2-((tert-butoxycarbonyl)amino)-3-(p-tolyl)propanoate] | 63.5 | 130 | 83.6 | 80.9 | 72.4 | – |
| CC(C)(C)OC(=O)NC(C(=O)Oc1ccc(/C=C/C(=O)c2ccc(OC(=O)C(NC(=O)OC(C)(C)C)C3CCCC3)cc2O)cc1)C1CCCC1 [Compound 6, 4-((E)-3-(4-((S)-2-((tert-butoxycarbonyl)amino)-2-cyclopentylacetoxy)-2-hydroxyphenyl)-3-oxoprop-1-en-1-yl)phenyl(R)-2-((tert-butoxycarbonyl)amino)-2-cyclopentylacetate] | > 200 | > 200 | > 200 | > 200 | > 200 | – |
| CC(C)(C)OC(=O)N[C@@H](Cc1ccccc1)C(=O)Oc1ccc(C(=O)/C=C/c2ccc(OC(=O)[C@@H](Cc3ccccc3)NC(=O)OC(C)(C)C)cc2)c(O)c1 [Compound 20, 4-((E)-3-(4-(((tert-butoxycarbonyl)-D-phenylalanyl)oxy)phenyl)acryloyl)-3-hydroxyphenyl (tert-butoxycarbonyl)-L-phenylalaninate] | > 200 | > 200 | > 200 | > 200 | > 200 | – |
| CCC(C)CC(NC(=O)OC(C)(C)C)C(=O)Oc1ccc(/C=C/C(=O)c2ccc(OC(=O)C(CC(C)CC)NC(=O)OC(C)(C)C)cc2O)cc1 (stereo not drawn) [Compound 2, (E)-4-(3-(4-((2-((tert-butoxycarbonyl)amino)-4-methylhexanoyl)oxy)-2-hydroxyphenyl)-3-oxoprop-1-en-1-yl)phenyl 2-((tert-butoxycarbonyl)amino)-4-methylhexanoate] | > 200 | > 200 | > 200 | > 200 | > 200 | – |
| CC(C)(C)OC(=O)N[C@@H](Cc1ccccc1Br)C(=O)Oc1ccc(C(=O)/C=C/c2ccc(OC(=O)[C@@H](Cc3ccccc3Br)NC(=O)OC(C)(C)C)cc2)c(O)c1 [Compound 14, 4-((E)-3-(4-(((S)-3-(2-bromophenyl)-2-((tert-butoxycarbonyl)amino)propanoyl)oxy)-2-hydroxyphenyl)-3-oxoprop-1-en-1-yl)phenyl(R)-3-(2-bromophenyl)-2-((tert-butoxycarbonyl)amino)propanoate] | > 200 | > 200 | > 200 | > 200 | > 200 | – |
| CC(C)(C)OC(=O)NC(C(=O)Oc1ccc(/C=C/C(=O)c2ccc(OC(=O)C(NC(=O)OC(C)(C)C)C3CCCCC3)cc2O)cc1)C1CCCCC1 [Compound 8, 4-((E)-3-(4-((R)-2-((tert-butoxycarbonyl)amino)-2-cyclohexylacetoxy)-2-hydroxyphenyl)-3-oxoprop-1-en-1-yl)phenyl(S)-2-((tert-butoxycarbonyl)amino)-2-cyclohexylacetate] | > 200 | > 200 | > 200 | > 200 | > 200 | – |
| Cc1ccc(C[C@H](NC(=O)OC(C)(C)C)C(=O)Oc2ccc(C(=O)/C=C/c3ccc(OC(=O)[C@@H](Cc4ccc(C)cc4)NC(=O)OC(C)(C)C)cc3)c(O)c2)cc1 [Compound 22, 4-((E)-3-(4-(((S)-2-((tert-butoxycarbonyl)amino)-3-(p-tolyl)propanoyl)oxy)-2-hydroxyphenyl)-3-oxoprop-1-en-1-yl)phenyl(R)-2-((tert-butoxycarbonyl)amino)-3-(p-tolyl)propanoate] | > 200 | > 200 | > 200 | > 200 | > 200 | – |
| CC(C)(C)OC(=O)N[C@H](Cc1ccccc1Br)C(=O)Oc1ccc(/C=C/C(=O)c2ccc(O)cc2O)cc1 [Compound 15, (E)-4-(3-(2,4-dihydroxyphenyl)-3-oxoprop-1-en-1-yl)phenyl(R)-3-(2-bromophenyl)-2-((tert-butoxycarbonyl)amino)propanoate] | 38.4 | 50.9 | 30.2 | 42.6 | 27.4 | – |
| CC(C)(C)OC(=O)NC(C(=O)Oc1ccc(/C=C/C(=O)c2ccc(OC(=O)C(NC(=O)OC(C)(C)C)c3ccccc3)cc2O)cc1)c1ccccc1 [Compound 18, 4-((E)-3-(4-((S)-2-((tert-butoxycarbonyl)amino)-2-phenylacetoxy)-2-hydroxyphenyl)-3-oxoprop-1-en-1-yl)phenyl(R)-2-((tert-butoxycarbonyl)amino)-2-phenylacetate] | > 200 | > 200 | > 200 | > 200 | > 200 | – |
| CC(C)(C)OC(=O)NC(CCc1ccccc1)C(=O)Oc1ccc(C(=O)/C=C/c2ccc(OC(=O)[C@H](CCc3ccccc3)NC(=O)OC(C)(C)C)cc2)c(O)c1 (stereo partly drawn) [Compound 12, 4-((E)-3-(4-((2-((tert-butoxycarbonyl)amino)-4-phenylbutanoyl)oxy)-2-hydroxyphenyl)-3-oxoprop-1-en-1-yl)phenyl(2S)-2-((tert-butoxycarbonyl)amino)-4-phenylbutanoate] | > 200 | > 200 | > 200 | > 200 | > 200 | – |
| CC(C)(C)OC(=O)NC(C(=O)Oc1ccc(/C=C/C(=O)c2ccc(O)cc2O)cc1)C1CCCC1 [Compound 7, (E)-4-(3-(2,4-dihydroxyphenyl)-3-oxoprop-1-en-1-yl)phenyl(R)-2-((tert-butoxycarbonyl)amino)-2-cyclopentylacetate] | 27.9 | 29.8 | 33.2 | 27.4 | 28.7 | – |
| CC(C)(C)OC(=O)N1CCCC1C(=O)Oc1ccc(/C=C/C(=O)c2ccc(OC(=O)[C@@H]3CCCN3C(=O)OC(C)(C)C)cc2O)cc1 (stereo partly drawn) [Compound 4, (E)-2-(4-(3-(4-(((tert-butoxycarbonyl)prolyl)oxy)-2-hydroxyphenyl)-3-oxoprop-1-en-1-yl)phenyl) 1-(tert-butyl) pyrrolidine-1,2-dicarboxylate] | > 200 | > 200 | > 200 | > 200 | > 200 | – |
| CC(C)(C)OC(=O)N[C@@H](CCc1ccccc1)C(=O)Oc1ccc(/C=C/C(=O)c2ccc(O)cc2O)cc1 [Compound 13, (E)-4-(3-(2,4-dihydroxyphenyl)-3-oxoprop-1-en-1-yl)phenyl(S)-2-((tert-butoxycarbonyl)amino)-4-phenylbutanoate] | 35.3 | 60.5 | 37.4 | 48.9 | 29.2 | – |
| CC(C)(C)OC(=O)N[C@H](Cc1ccccc1Cl)C(=O)Oc1ccc(/C=C/C(=O)c2ccc(O)cc2O)cc1 [Compound 17, (E)-4-(3-(2,4-dihydroxyphenyl)-3-oxoprop-1-en-1-yl)phenyl(R)-2-((tert-butoxycarbonyl)amino)-3-(2-chlorophenyl)propanoate] | 33.2 | 60.2 | 38.1 | 40.7 | 30.4 | 37.4 |
| CC(NC(=O)OC(C)(C)C)C(=O)Oc1ccc(C=CC(=O)c2ccc(O)cc2O)cc1 [Compound 11, (E)-4-(3-(2,4-dihydroxyphenyl)-3-oxoprop-1-en-1-yl)phenyl(tert-butoxycarbonyl)-D-alaninate] | 87.6 | 160 | 122 | 100 | 99.9 | – |
| C[C@H](NC(=O)OC(C)(C)C)C(=O)Oc1ccc(C(=O)/C=C/c2ccc(OC(=O)[C@@H](C)NC(=O)OC(C)(C)C)cc2)c(O)c1 [Compound 10, 4-((E)-3-(4-(((tert-butoxycarbonyl)-D-alanyl)oxy)phenyl)acryloyl)-3-hydroxyphenyl (tert-butoxycarbonyl)-L-alaninate] | > 200 | > 200 | > 200 | > 200 | > 200 | – |
| CC(C)(C)OC(=O)NC(Cc1ccccc1)C(=O)Oc1ccc(/C=C/C(=O)c2ccc(O)cc2O)cc1 [Compound 21, (E)-4-(3-(2,4-dihydroxyphenyl)-3-oxoprop-1-en-1-yl)phenyl(tert-butoxycarbonyl)-D-phenylalaninate] | 45.3 | 75.7 | 87.5 | 60.2 | 66.5 | – |
